# Data: patent publication US6407288B1, “Naphthylsalicylanilides as antimicrobial and antiinflammatory agents” (The Research Foundation of State University of New York, priority 2000, dated 2002)
# Tested on: Str. pyo
# Test: Mean Streptococcus MIC
# Format: cell-based
# Details: Streptococcus; Table 5, mean
# Outline: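 Modified NCCLS broth microdilution in duplicate: 10 μL inoculum from cultures diluted to about 1×10^8 CFU/mL, drug 50 to 0.05 μg/assay diluted from DMSO stock. Full-strength BHI for aerobes, supplemented half-strength BHI under 5% CO2/10% H2/N2 for anaerobes, 24–48 h; MIC as lowest concentration without visible growth.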
row,MIC [µg/mL],SMILES
1,16.7,N#Cc1cccc(NC(=O)c2cc(C(=O)c3cccc4ccccc34)ccc2O)c1 [NA1mC]
2,1,O=C(Nc1cccc(C(F)(F)F)c1)c1cc(C(=O)c2cccc3ccccc23)ccc1O [NA1mF]
